# Paper PMC4851326, “Pharmacologic Comparison of Clinical Neutral Endopeptidase Inhibitors in a Rat Model of Acute Secretory Diarrhea” (The Journal of Pharmacology and Experimental Therapeutics, 2016)
# Tests used:
# [1] = target: T1, NEP (Homo sapiens, UniProt P08473); assay: Purified peptidase assay, NEP; assay type: biochemical; conditions: recombinant purified human enzyme; for prodrugs the active form was tested
# T1 construct: purchased R&D Systems (Minneapolis, MN)
# Method: (§1) Purified recombinant human enzymes were purchased from R&D Systems (Minneapolis, MN). […] Each substrate was diluted to 100 μM in the assay buffer recommended for each enzyme by the supplier. […] To these, 5 μl of diluted enzyme was added, followed by 10 μl of the quenched peptide substrate. The plates were incubated at 37°C until at least 10% substrate turnover or 5 μM product had formed. Fluorescence was measured using a Tecan Safire II (Excitation 320 nm/Emission 420 nm). Each plate included a standard curve of reaction product and positive (no enzyme) and negative (dimethyl sulfoxide vehicle) controls. Dose-response data were plotted and inhibition values (IC50) determined by linear regression analysis using GraphPad Prism (GraphPad Software, La Jolla, CA).
# [2] = target: T2, ECE-1 (Homo sapiens, UniProt P42892); assay: biochemical; conditions: recombinant purified human enzyme; for prodrugs the active form was tested
# T2 construct: purchased R&D Systems (Minneapolis, MN)
# T2 sequence (P42892 1-770): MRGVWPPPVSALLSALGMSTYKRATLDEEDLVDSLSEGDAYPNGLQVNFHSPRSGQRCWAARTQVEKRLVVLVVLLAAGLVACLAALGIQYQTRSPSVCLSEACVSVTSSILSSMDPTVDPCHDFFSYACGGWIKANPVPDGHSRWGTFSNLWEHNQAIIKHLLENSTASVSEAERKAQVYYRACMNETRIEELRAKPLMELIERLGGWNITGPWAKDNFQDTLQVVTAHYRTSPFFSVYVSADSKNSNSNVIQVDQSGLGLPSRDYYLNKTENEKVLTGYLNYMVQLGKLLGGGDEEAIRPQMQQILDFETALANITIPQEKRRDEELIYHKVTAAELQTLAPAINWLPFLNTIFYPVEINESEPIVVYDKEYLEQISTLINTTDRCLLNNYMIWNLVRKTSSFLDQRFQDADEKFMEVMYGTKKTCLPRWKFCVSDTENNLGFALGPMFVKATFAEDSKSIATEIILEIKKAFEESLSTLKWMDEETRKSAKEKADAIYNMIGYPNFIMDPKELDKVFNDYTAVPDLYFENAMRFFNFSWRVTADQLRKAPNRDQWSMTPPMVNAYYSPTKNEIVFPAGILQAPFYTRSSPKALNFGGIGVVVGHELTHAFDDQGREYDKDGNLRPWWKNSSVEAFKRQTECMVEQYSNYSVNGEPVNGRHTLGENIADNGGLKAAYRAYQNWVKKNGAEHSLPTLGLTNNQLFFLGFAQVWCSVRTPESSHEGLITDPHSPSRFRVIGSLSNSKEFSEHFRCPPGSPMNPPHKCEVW
# Method: as §1
# [3] = target: T3, ECE-2 (Homo sapiens, UniProt P0DPD6); assay: Purified peptidase assay, ECE-2; assay type: biochemical; conditions: recombinant purified human enzyme; for prodrugs the active form was tested
# T3 construct: purchased R&D Systems (Minneapolis, MN)
# T3 sequence (P0DPD6 1-811): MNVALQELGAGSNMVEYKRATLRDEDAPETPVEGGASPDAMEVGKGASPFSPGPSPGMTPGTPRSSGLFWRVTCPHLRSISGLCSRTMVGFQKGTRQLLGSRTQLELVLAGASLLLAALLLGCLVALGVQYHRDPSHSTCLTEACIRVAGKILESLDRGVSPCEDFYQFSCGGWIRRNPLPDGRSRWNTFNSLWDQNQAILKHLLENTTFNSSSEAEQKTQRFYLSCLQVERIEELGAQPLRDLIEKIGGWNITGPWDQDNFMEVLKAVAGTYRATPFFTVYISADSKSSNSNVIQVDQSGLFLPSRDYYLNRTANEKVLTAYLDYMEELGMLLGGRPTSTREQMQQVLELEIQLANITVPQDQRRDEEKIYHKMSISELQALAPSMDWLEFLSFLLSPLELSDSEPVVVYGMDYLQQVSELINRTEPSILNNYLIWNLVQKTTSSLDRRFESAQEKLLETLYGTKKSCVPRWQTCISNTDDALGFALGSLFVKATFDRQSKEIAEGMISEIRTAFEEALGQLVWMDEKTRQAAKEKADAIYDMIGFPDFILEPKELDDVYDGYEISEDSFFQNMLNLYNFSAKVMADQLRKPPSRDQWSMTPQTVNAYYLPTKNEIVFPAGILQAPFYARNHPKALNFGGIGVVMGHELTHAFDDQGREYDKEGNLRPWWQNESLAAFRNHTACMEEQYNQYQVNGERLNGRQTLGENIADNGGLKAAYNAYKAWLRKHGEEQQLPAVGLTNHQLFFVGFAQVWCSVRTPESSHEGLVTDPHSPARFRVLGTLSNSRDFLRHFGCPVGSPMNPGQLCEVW
# Method: as §1
# [4] = system: castor oil–induced diarrhea; assay: Castor oil–induced diarrhea model; assay type: in vivo, rat; conditions: single oral dose 30 minutes before castor oil, fasted rats, vs vehicle (Fig. 1)
# Method: Experiments were performed with 6-to-7-week-old male Wistar rats obtained from Charles River Laboratories (Wilmington, MA). All animals were housed in Saint Louis University facilities under controlled conditions of temperature, humidity, and a 12-hour light/dark cycle. They were maintained on standard rodent chow with free access to water. Animal care and all procedures were performed in accordance with the National Institutes of Health Guide for the Care and Use of Laboratory Animals and approved by the university’s institutional animal care and use committee.
# Animals were weighed and individually housed in metabolic cages containing white paper underneath to collect feces. Test compounds or vehicles were administered by oral gavage (5 ml/kg), and then at indicated times, 10 ml/kg body weight of 100% castor oil was administered by oral gavage to induce diarrhea. Animals had access to food within 5 minutes. Stool weight was recorded starting 15 minutes after castor oil administration and repeated every 15 minutes up to 4 hours. […] After 4 hours, animals were euthanized with CO2, and blood and tissues were collected for analyses.
# T1 sequence (P08473 whole entry): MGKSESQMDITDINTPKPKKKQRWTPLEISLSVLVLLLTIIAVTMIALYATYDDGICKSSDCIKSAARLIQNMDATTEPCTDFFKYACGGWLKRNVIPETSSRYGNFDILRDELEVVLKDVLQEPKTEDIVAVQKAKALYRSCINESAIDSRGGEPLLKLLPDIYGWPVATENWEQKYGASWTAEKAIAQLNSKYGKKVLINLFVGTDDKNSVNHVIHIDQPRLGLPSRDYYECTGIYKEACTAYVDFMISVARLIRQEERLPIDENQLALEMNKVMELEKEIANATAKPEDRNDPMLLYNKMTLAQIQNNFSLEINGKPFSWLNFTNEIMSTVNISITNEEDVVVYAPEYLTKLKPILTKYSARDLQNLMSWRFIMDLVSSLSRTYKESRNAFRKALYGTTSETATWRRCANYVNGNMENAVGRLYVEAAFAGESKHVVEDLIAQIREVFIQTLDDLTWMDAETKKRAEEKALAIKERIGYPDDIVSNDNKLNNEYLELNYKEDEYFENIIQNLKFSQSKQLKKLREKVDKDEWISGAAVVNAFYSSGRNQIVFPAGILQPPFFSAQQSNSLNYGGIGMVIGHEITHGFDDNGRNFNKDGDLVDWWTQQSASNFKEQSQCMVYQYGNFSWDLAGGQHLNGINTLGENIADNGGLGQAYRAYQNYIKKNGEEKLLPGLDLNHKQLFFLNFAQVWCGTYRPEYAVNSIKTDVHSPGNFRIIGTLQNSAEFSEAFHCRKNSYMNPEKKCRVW
structure (smiles),measurement,setting,value
"Cc1nc2ccc(CCCNC(=O)C3(C[C@@H](C)C(=O)O)CCCC3)cc2s1 [UK-505,749, (R)-2-methyl-3-(1-((3-(2-methylbenzo[d]thiazol-6-yl)propyl)carbamoyl)cyclopentyl)propanoic acid]",IC50,[1],0.004 µM
same,IC50,[2],3.3 µM
same,IC50,[3],15 µM
same,Cumulative stool output over 4 hours,[4],significantly reduced
